Experimental findings from ChEMBL document CHEMBL1201862, “PubChem BioAssay data set” (2004) are described below.

As usually defined, the Ki is the equilibrium dissociation constant of an inhibitor or competing ligand from its target.

The source made the active and inactive calls.

Common to all, as to assay type: functional
In test [1] the target is T1, DNA dC->dU-editing enzyme APOBEC-3G (Homo sapiens, UniProt Q9HC16). In words: SAR analysis of small molecule inhibitors of APOBEC3G DNA Deaminase via a fluorescence-based single-stranded DNA deaminase assay - Set 2. As to conditions: read-out: IC50_Mean.
T1 sequence (Q9HC16 whole entry): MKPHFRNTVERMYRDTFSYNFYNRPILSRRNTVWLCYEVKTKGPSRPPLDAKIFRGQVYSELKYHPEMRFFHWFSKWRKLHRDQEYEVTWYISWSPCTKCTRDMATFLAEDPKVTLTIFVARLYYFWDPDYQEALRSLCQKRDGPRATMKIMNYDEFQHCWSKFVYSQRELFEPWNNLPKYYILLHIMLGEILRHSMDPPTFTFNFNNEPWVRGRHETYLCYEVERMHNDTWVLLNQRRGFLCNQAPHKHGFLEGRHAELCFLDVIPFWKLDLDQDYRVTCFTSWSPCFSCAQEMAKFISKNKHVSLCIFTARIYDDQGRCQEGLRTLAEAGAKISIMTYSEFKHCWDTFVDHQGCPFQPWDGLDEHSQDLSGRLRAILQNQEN
The target in test [2] is T2, DNA dC->dU-editing enzyme APOBEC-3A (Homo sapiens, UniProt P31941). The experiment in a line: APOBEC3A DNA deaminase inhibitors, dose response, biochemical (AID 504722).
T2 sequence (P31941 whole entry): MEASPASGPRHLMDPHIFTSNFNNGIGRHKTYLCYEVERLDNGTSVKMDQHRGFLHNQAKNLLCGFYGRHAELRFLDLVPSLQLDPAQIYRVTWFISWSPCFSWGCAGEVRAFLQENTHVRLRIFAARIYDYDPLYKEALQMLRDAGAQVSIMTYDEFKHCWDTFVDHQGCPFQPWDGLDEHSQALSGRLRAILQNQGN
In test [3] the target is T3, Rac GTPase-activating protein 1 (Homo sapiens, UniProt Q9H0H5).
T3 sequence (Q9H0H5 whole entry): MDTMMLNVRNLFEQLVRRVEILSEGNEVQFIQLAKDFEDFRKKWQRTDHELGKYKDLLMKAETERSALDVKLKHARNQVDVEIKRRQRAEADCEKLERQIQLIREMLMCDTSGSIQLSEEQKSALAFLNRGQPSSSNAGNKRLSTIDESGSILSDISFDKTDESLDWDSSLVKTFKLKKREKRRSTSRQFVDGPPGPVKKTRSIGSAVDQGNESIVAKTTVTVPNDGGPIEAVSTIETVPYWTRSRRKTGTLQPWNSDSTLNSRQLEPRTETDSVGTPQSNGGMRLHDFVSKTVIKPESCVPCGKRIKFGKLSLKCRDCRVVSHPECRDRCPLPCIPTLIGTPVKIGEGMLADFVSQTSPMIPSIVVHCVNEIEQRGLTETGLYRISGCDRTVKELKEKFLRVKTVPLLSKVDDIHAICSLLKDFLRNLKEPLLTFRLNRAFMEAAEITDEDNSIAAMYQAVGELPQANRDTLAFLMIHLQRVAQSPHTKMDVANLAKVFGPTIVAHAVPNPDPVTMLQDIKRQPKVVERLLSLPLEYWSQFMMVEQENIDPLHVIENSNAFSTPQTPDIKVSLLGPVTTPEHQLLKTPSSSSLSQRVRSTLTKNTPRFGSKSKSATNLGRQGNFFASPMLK
In words: MgcRacGAP GTPase-activating activity inhibitors, confirmation, biochemical, ADP Hunter fluorescence, primary and confirmatory (AID 624330).

For test [4], the target named is T2, DNA dC->dU-editing enzyme APOBEC-3A. The experiment in a line: SAR analysis of small molecule inhibitors of APOBEC3A DNA Deaminase via a fluorescence-based single-stranded DNA deaminase assay - Set 2. The following applies: read-out: IC50_Mean.
For test [5], the target named is T1, DNA dC->dU-editing enzyme APOBEC-3G. The experiment in a line: Dose Response confirmation of small molecule APOBEC3G DNA Deaminase Inhibitors via a fluorescence-based single-stranded DNA deaminase assay. [Related pubchem assays (depositor defined):AID493012, AID493028].
Test [6] has as its target Neuropeptides B/W receptor type 1 (Homo sapiens, UniProt P48145). The experiment in a line: GPR7 antagonist potency, late-stage follow-up, cell-based, fluorescence, dose response, set 5 (AID 588566).
For test [7], the target named is Melanin-concentrating hormone receptor 1 (Homo sapiens, UniProt Q99705). The experiment in a line: Late-stage fluorescence-based counterscreen for antagonists of the G-protein coupled receptor 7 (GPR7): cell-based dose response assay to identify antagonists of the melanin-concentrating hormone receptor 1 (MCHR1) Set 5. A general note: The purpose of a counterscreen is to sort out artefacts and off-target activity.

Test [8] addresses Insulin-like growth factor 1 receptor (Homo sapiens, UniProt P08069). The experiment in a line: Navigating the Kinome. Panel member name: IGF1R.
In test [9] the target is Glycogen synthase kinase-3 alpha (Homo sapiens, UniProt P49840).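 Also: GSK3A result taken from a broad kinome-wide kinase panel.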
For test [10], the target named is Mitogen-activated protein kinase 14 (Homo sapiens, UniProt Q16539).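 Also: part of a kinome-wide panel, MAPK14 entry.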
Mitogen-activated protein kinase 14, sequence (Q16539 whole entry): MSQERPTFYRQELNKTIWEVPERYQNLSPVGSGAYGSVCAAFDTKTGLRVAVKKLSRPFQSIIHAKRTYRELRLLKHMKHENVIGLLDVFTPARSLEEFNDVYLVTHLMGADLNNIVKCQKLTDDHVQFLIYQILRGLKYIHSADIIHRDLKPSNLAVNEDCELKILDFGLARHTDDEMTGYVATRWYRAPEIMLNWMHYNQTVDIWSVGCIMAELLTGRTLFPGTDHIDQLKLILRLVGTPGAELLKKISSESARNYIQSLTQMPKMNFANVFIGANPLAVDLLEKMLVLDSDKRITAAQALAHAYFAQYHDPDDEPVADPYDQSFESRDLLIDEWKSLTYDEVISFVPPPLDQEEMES
The target in test [11] is Tyrosine-protein kinase Fyn (Homo sapiens, UniProt P06241).
Test [12] concerns the target cAMP-dependent protein kinase catalytic subunit PRKX (Homo sapiens, UniProt P51817).
For test [13], the target named is Casein kinase I isoform alpha (Homo sapiens, UniProt P48729).
Test [14] deals with Macrophage colony-stimulating factor 1 receptor (Homo sapiens, UniProt P07333).
Test [15] addresses Mitogen-activated protein kinase kinase kinase kinase 4 (Homo sapiens, UniProt O95819).
The target of test [16] is MAP/microtubule affinity-regulating kinase 3 (Homo sapiens, UniProt P27448).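 Also: MARK3 affinity measured as one member of a kinome panel.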
Test [17] deals with cAMP-dependent protein kinase catalytic subunit alpha (Homo sapiens, UniProt P17612).
Test [18] addresses Cyclin-dependent kinase 9 (Homo sapiens, UniProt P50750).
The target in test [19] is Dual specificity protein kinase CLK2 (Homo sapiens, UniProt P49760).
The target of test [20] is Fibroblast growth factor receptor 1 (Homo sapiens, UniProt P11362).
Test [21] addresses Tyrosine-protein kinase JAK3 (Homo sapiens, UniProt P52333).
Test [22] deals with G protein-coupled receptor kinase 5 (Homo sapiens, UniProt P34947). In words: Navigating the Kinome. Panel member name: GPRK5.
In test [23] the target is Serine/threonine-protein kinase TAO1 (Homo sapiens, UniProt Q7L7X3).
Test [24] concerns the target Vascular endothelial growth factor receptor 1 (Homo sapiens, UniProt P17948).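 Also: measured within a kinome-wide profiling panel, FLT1 as the panel member.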
Test [25] has as its target Inhibitor of nuclear factor kappa-B kinase subunit epsilon (Homo sapiens, UniProt Q14164). In words: Navigating the Kinome. Panel member name: IKBKE.
Test [26] has as its target Tyrosine-protein kinase ABL1 (Homo sapiens, UniProt P00519).
Test [27] has as its target Dual specificity tyrosine-phosphorylation-regulated kinase 1A (Homo sapiens, UniProt Q13627).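 Also: measured against DYRK1A as one member of a broad kinome profiling panel.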
Test [28] concerns the target Dual specificity mitogen-activated protein kinase kinase 1 (Homo sapiens, UniProt Q02750). The experiment in a line: Navigating the Kinome. Panel member name: MAP2K1.
Test [29] concerns the target Dual specificity mitogen-activated protein kinase kinase 2 (Homo sapiens, UniProt P36507). The experiment in a line: Navigating the Kinome. Panel member name: MAP2K2.
The target of test [30] is Leucine-rich repeat serine/threonine-protein kinase 2 (Homo sapiens, UniProt Q5S007).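 Also: value from a broad kinome-wide panel profiling study in which LRRK2 was one of the kinases tested.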
Test [31] has as its target Ribosomal protein S6 kinase alpha-3 (Homo sapiens, UniProt P51812).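 Also: measured within a kinome-wide profiling panel.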
In test [32] the target is Dual specificity protein kinase CLK4 (Homo sapiens, UniProt Q9HAZ1).
For test [33], the target named is Leukocyte tyrosine kinase receptor (Homo sapiens, UniProt P29376). In words: Navigating the Kinome. Panel member name: LTK.
Test [34] deals with Cyclin-dependent kinase 19 (Homo sapiens, UniProt Q9BWU1). The experiment in a line: Navigating the Kinome. Panel member name: CDC2L6.
In test [35] the target is Receptor-type tyrosine-protein kinase FLT3 (Homo sapiens, UniProt P36888).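 Also: FLT3 was tested as one member of a kinome-wide kinase panel.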
The target in test [36] is Proto-oncogene tyrosine-protein kinase receptor Ret (Homo sapiens, UniProt P07949).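 Also: measured within a kinome-wide profiling panel, RET as the panel member.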
For test [37], the target named is Tyrosine-protein kinase JAK2 (Homo sapiens, UniProt O60674).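 Also: JAK2 tested as one member of a kinase panel.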
Test [38] deals with Mitogen-activated protein kinase 9 (Homo sapiens, UniProt P45984).
A further test has as its target Aurora kinase A (Homo sapiens, UniProt O14965).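 Also: value from the Navigating the Kinome kinase panel profiling, panel entry STK6.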
The target in test [39] is Mitogen-activated protein kinase 8 (Homo sapiens, UniProt P45983).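 Also: value comes from one member of a kinome-wide kinase profiling panel.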
The target of test [40] is Platelet-derived growth factor receptor alpha (Homo sapiens, UniProt P16234). The experiment in a line: Navigating the Kinome. Panel member name: PDGFRA.
Platelet-derived growth factor receptor alpha, sequence (P16234 whole entry): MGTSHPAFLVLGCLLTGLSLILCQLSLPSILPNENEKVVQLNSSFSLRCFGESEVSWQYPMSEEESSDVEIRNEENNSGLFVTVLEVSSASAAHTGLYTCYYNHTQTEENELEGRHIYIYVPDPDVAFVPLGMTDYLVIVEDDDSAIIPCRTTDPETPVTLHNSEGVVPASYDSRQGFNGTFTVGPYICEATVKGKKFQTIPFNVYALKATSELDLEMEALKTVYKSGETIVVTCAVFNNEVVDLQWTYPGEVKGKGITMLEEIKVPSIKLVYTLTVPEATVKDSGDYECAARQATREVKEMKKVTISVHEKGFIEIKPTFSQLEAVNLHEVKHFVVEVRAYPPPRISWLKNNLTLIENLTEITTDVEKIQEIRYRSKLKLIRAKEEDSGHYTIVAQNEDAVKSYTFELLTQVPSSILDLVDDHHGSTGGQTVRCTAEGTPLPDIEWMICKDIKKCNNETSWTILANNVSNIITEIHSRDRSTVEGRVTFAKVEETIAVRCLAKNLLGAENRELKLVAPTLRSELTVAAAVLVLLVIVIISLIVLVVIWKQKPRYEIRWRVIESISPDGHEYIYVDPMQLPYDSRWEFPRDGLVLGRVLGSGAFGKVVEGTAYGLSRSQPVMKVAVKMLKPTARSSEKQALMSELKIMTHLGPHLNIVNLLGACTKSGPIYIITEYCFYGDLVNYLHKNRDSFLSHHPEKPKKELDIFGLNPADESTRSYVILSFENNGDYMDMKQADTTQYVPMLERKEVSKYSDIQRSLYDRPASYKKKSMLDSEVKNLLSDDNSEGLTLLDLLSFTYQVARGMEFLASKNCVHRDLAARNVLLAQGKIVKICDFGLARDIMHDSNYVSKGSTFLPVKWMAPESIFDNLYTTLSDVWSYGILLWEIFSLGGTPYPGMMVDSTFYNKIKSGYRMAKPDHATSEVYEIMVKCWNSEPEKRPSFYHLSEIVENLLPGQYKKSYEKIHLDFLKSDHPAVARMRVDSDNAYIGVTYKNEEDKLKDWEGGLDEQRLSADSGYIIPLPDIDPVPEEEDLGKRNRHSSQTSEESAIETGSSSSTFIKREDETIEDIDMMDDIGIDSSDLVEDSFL
The target in test [41] is Tyrosine-protein kinase Lck (Homo sapiens, UniProt P06239).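 Also: lck was assayed as one member of a kinase panel.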
Test [42] deals with Serine/threonine-protein kinase pim-1 (Homo sapiens, UniProt P11309).
For test [43], the target named is Vascular endothelial growth factor receptor 2 (Homo sapiens, UniProt P35968).
Test [44] concerns the target ALK tyrosine kinase receptor (Homo sapiens, UniProt Q9UM73).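 Also: ALK tested as one member of a kinase panel screen.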
Test [45] concerns the target Mitogen-activated protein kinase kinase kinase kinase 2 (Homo sapiens, UniProt Q12851).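 Also: measured as one member of a kinome-wide kinase panel, with MAP4K2 as the panel entry.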
In test [46] the target is Calcium/calmodulin-dependent protein kinase type II subunit alpha (Homo sapiens, UniProt Q9UQM7). The experiment in a line: Navigating the Kinome. Panel member name: CAMK2A.
For test [47], the target named is Serine/threonine-protein kinase PAK 4 (Homo sapiens, UniProt O96013).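 Also: value obtained within a kinome profiling panel in which PAK4 was one of the panel members.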
The target in test [48] is 5'-AMP-activated protein kinase catalytic subunit alpha-1 (Homo sapiens, UniProt Q13131).
For test [49], the target named is Mitogen-activated protein kinase kinase kinase kinase 5 (Homo sapiens, UniProt Q9Y4K4).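 Also: measured as one member of a kinome-spanning kinase panel.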
The target of test [50] is Glycogen synthase kinase-3 beta (Homo sapiens, UniProt P49841).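 Also: value comes from a broad kinome profiling panel, with GSK3B as the panel member.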
The target in test [51] is Death-associated protein kinase 3 (Homo sapiens, UniProt O43293).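 Also: measured as one member of a kinome-wide profiling panel.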
For test [52], the target named is Tyrosine-protein kinase receptor TYRO3 (Homo sapiens, UniProt Q06418).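 Also: TYRO3 value obtained as one member of a kinome-wide profiling panel.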
Tyrosine-protein kinase receptor TYRO3, sequence (Q06418 whole entry): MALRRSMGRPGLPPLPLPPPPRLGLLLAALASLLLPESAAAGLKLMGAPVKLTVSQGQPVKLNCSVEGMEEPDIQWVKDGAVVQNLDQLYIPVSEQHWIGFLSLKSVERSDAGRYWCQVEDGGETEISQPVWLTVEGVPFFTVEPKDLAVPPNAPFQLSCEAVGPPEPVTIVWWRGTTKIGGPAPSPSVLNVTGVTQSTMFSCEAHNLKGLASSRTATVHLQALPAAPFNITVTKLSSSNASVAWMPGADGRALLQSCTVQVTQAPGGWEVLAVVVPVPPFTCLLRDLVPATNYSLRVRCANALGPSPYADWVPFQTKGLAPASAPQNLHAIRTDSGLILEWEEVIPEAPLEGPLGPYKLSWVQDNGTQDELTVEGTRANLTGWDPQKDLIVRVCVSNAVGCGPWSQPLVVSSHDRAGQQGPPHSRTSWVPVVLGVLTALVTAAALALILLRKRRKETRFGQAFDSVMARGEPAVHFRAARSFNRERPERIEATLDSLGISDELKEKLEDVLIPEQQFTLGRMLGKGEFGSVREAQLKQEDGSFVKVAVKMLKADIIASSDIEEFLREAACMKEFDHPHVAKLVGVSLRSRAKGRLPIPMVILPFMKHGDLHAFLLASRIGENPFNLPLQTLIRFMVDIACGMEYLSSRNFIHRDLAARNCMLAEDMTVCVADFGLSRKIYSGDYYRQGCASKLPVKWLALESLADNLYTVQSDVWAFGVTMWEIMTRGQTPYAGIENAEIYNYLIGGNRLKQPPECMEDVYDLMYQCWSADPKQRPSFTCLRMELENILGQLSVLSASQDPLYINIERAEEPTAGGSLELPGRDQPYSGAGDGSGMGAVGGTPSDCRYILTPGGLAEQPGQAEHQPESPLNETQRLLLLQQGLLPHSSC
The target of test [53] is Serine/threonine-protein kinase TBK1 (Homo sapiens, UniProt Q9UHD2). The experiment in a line: Navigating the Kinome. Panel member name: TBK1.
Test [54] deals with Cyclin-dependent kinase 8 (Homo sapiens, UniProt P49336). The experiment in a line: Navigating the Kinome. Panel member name: CDK8.
The target of test [55] is Macrophage-stimulating protein receptor (Homo sapiens, UniProt Q04912). The experiment in a line: Navigating the Kinome. Panel member name: MST1R.

Ribosomal protein S6 kinase alpha-3, sequence (P51812 whole entry): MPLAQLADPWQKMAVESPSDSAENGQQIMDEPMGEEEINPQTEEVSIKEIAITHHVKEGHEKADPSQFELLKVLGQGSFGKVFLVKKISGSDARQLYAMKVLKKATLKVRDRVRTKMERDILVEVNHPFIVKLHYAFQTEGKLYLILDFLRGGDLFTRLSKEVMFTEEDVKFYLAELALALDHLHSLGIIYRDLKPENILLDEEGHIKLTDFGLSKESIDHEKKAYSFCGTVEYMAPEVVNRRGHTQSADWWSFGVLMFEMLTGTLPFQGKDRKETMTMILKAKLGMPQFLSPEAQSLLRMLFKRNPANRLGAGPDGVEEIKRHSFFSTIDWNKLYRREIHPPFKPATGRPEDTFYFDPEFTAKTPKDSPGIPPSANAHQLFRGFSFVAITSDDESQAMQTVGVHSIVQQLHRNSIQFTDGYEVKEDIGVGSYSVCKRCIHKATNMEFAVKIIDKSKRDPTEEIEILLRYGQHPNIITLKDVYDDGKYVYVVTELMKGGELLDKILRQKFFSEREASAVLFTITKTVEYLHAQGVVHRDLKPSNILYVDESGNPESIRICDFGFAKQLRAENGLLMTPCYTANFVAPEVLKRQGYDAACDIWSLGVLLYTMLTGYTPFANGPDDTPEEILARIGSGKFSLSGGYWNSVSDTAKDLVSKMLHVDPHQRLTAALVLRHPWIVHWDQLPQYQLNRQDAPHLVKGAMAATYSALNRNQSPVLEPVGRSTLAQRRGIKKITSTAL
Mitogen-activated protein kinase kinase kinase kinase 4, sequence (O95819 whole entry): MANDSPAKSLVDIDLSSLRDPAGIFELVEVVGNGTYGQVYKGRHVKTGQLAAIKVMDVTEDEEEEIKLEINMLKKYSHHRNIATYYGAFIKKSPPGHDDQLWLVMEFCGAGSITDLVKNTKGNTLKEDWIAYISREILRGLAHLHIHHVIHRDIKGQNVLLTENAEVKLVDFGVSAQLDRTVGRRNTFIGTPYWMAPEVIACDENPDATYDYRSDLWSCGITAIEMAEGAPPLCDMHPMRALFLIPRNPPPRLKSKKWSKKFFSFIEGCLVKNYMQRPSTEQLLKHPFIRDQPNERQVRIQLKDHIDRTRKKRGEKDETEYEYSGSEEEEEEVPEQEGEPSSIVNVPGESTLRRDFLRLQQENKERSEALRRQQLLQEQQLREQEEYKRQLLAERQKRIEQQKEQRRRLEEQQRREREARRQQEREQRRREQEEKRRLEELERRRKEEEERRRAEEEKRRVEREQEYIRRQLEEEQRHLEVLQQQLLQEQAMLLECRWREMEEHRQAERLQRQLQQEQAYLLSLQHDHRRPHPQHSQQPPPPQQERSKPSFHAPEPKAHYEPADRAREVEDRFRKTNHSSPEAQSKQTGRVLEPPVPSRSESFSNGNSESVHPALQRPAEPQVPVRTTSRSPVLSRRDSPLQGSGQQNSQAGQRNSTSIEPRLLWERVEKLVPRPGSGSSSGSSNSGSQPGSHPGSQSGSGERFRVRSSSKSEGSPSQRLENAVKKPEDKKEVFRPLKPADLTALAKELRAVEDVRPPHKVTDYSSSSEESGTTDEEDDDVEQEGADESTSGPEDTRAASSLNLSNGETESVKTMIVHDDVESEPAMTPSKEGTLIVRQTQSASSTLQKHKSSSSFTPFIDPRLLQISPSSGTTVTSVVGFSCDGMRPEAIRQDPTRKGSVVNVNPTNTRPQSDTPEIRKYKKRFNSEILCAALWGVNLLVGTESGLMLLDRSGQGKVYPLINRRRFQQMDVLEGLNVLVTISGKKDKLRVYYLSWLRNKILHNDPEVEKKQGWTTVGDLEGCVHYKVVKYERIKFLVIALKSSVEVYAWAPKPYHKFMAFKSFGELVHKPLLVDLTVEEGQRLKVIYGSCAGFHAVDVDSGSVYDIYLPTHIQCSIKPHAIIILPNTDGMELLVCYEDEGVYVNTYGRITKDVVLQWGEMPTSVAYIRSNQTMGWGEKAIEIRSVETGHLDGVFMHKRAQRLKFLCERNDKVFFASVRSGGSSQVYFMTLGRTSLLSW

As to `O=c1c2ccccc2n2c(=S)[nH]nc2n1-c1ccccc1`, the IC50 was 0.376 µM (active) in test [1]; > 100 µM (inactive) in test [2]; 25.8 µM (active) in test [3]; > 99 µM (inactive) in [4]; 4.67 µM (active) in test [5].

Regarding `CN(C)C(=O)c1ccc(Oc2c(Cl)cnn(Cc3cccc4ccccc34)c2=O)cc1`, the figures for the IC50 in test [6] and in test [7] were 9.29 µM (active) and 7.88 µM (active), respectively.

As for `Cc1cc(O)nc2[nH]nc(-c3cccc(-c4ccc(Cl)cc4)c3)c12`, the Ki in test [8] is > 2.51 µM (inactive); in test [9] it was > 3.98 µM (inactive); in test [10] it was > 3.98 µM (inactive); in test [11] it was > 6.31 µM (inactive); in test [12], 0.00631 µM (active); in [13], > 3.98 µM (inactive). Also, the Ki in test [14] is > 2.51 µM (inactive); in test [15] it was > 5.01 µM (inactive); in [16], > 5.01 µM (inactive); in test [17] it was > 1.26 µM (inactive); in [18], > 1.58 µM (inactive); in test [19] it was > 3.98 µM (inactive). Also, the Ki is > 3.98 µM (inactive) in [20]; > 5.01 µM (inactive) in test [21]; > 3.98 µM (inactive) in [22]; > 6.31 µM (inactive) in test [23]; > 3.98 µM (inactive) in test [24]; > 3.16 µM (inactive) in test [25]. Moreover, the Ki in [26] is > 3.98 µM (inactive); in test [27], > 2 µM (inactive); in test [28], > 3.16 µM (inactive); in test [29], > 3.98 µM (inactive); in [30] it was > 2.51 µM (inactive); in test [31], > 3.98 µM (inactive). Also, the Ki in [32] was > 2.51 µM (inactive); in test [33], > 2.51 µM (inactive); in test [34], > 100 µM (inactive); in test [35] it was > 3.16 µM (inactive); in test [36] it was > 3.16 µM (inactive); in [37], > 2.51 µM (inactive). For the same compound, the Ki is > 3.98 µM (inactive) in test [38]; > 1.58 µM (inactive) on Aurora kinase A; > 5.01 µM (inactive) in test [39]; > 2.51 µM (inactive) in test [40]; > 6.31 µM (inactive) in test [41]; > 6.31 µM (inactive) in test [42]. In addition, the Ki in test [43] was > 2.51 µM (inactive); in [44] it was > 6.31 µM (inactive); in test [45], > 2.51 µM (inactive); in test [46], > 7.94 µM (inactive); in test [47], 1.58 µM (active); in test [48] it was > 3.16 µM (inactive). The Ki in test [49] is > 3.98 µM (inactive); in test [50], > 3.98 µM (inactive); in [51], > 5.01 µM (inactive); in test [52], > 3.16 µM (inactive); in [53], > 3.16 µM (inactive); in [54], > 3.98 µM (inactive). Besides, the Ki in test [55] was > 3.98 µM (inactive).
